Measured values from paper PMC9101373, “Design of DNA Intercalators Based on 4-Carboranyl-1,8-Naphthalimides: Investigation of Their DNA-Binding Ability and Anticancer Activity” (International Journal of Molecular Sciences, 2022).

Assays:
[1] = system: HepG2 cells; assay: Oxidative stress (ROS) measurement by flow cytometry, CellROX Deep Red; assay type: cell-based, human; conditions: HepG2, 24 h at total IC50
Procedure: To determine the effect of the compounds on HepG2 cells, we analyzed oxidative status after 24 h of treatment as the pathological level of ROS affects the proper functioning of proteins, lipids, and nucleic acids. The compounds were added to the growth medium at a concentration that corresponds to the total IC50 value. After incubation, the cells were stained with CellROX Deep Red Reagent, which is an oxidative stress indicator. This is a non-fluorescent dye that emits red fluorescent signal upon oxidation by ROS. […] We observed an increase in fluorescence intensity of approximately 22–32% as compared to that of control cells (Figure 5 and Figure S298, ESI).
HepG2 cells (3.85 × 10^5) were seeded onto 6-well plates, cultured with EMEM media at 37 °C and 5% CO2 saturation, and incubated until 60–70% confluence. Subsequently, the cells were treated for 24 h with the tested compounds at a concentration corresponding to their total IC50 values. […] The level of intracellular ROS generation was analyzed by staining with CellROX™ Deep Red Reagent (ex/em: ~644/665 nm) according to the manufacturer’s protocol (Thermo Fisher Scientific, Waltham, MA, USA), in which fluorescence was triggered in the presence of ROS. […] The cells were analyzed after incubation with the dye, with excitation at […] by the FACSCalibur flow cytometer (Becton Dickinson), and data were analyzed by FlowJo software. […]

[2] = system: HepG2 cells; assay: Cell cycle analysis by flow cytometry (PI staining); assay type: cell-based, human; conditions: HepG2, 24 h at IC50; for cells in G2M phase: control 11.5%
Procedure: To reveal the mechanism underlying the inhibitory effect of the obtained compounds on cellular viability, we examined cell cycle regulation. For this purpose, HepG2 cells were exposed to compounds 54–61 (54 (5.5 µM), 55 (3.4 µM), 56 (12 µM), 57 (3.1 µM), 58 (3.9 µM), 59 (5.4 µM), 60 (31 µM), and 61 (4.8 µM)). The chosen concentration of each of these compounds corresponded to their total IC50 value.
After exposure, HepG2 cells were examined by flow cytometry, and their DNA content was measured by PI staining. […] Compounds 54–59 caused arrest in the G1/G0 phase since we observed a higher number of cells in that phase as compared to control (Figure 4 and Figure S297, ESI). […] Compounds 60 and 61 arrested cell cycle in the G2M phase, where the accumulation of cells was observed (>18% vs. 11.5% in control cells) (Figure 4 and Figure S297, ESI). In comparison, mitonafide and pinafide induced cell cycle arrest at the S and G2M phases, respectively. […] In contrast, 1,8-naphthalimide products with carborane modification at position 3 caused cell cycle arrest at the G2M phase, similar to pinafide and compounds 60 and 61 from this study.
HepG2 (5 × 10^5) cells were seeded onto 6-well cell culture plates and incubated for 24 h in a fully supplemented EMEM medium (Corning®) with addition of the analyzed compounds at a concentration corresponding to their total IC50 values. DNA content was determined by flow cytometry with PI (Sigma-Aldrich, Steinheim, Germany) staining. After incubation, the cells were trypsinized and washed twice with PBS (1 mL). In the next step, the cells were fixed with an ice-cold 80% ethanol. After 1 h incubation at 4 °C, the cells were stored at −20 °C for further analysis. After double wash with PBS, the fixed cells were stained with PI (50 μg/mL) with RNAse A (100 μg/mL) for 30 min at 37 °C in the dark. PI fluorescence was measured by FACSCalibur (Becton Dickinson), and data were analyzed by FlowJo software. […]

Substance	increase in CellROX fluorescence intensity (ROS) as compared to control [1] [%]	cells in G2M phase [2] [%]	G0/G1 cell fraction ([2]; control 60.1%) [%]
N-[2-N-Pyrrolidinyl)ethyl]-4-[(6-(2-(1,2-dicarba-closo-dodecaborane-1-yl)-ethylamino)hexyl)amino]-1,8-naphthalimide [Compound 60]	64	> 18	
N-[2-N-Pyrrolidinyl)ethyl]-4-[(6-(2-(1,7-dicarba-closo-dodecaborane-1-yl)-ethylamino)hexyl)amino]-1,8-naphthalimide [Compound 61]	65	> 18	
N-[2-(Dimethylamino)ethyl]-4-[(6-(2-(1,2-dicarba-closo-dodecaborane-1-yl)-ethylamino)hexyl)amino]-1,8-naphthalimide [Compound 58]			70.4
